# Results: ChEMBL document CHEMBL1909046, “DrugMatrix in vitro pharmacology data”
# Assays:
# [1] = DRUGMATRIX: Potassium Channel [KATP] radioligand binding (ligand: [3H] Glyburide); format: cell membranes, Membrane; conditions: hit-t15; Not Active = under 50% inhibition at 10 µM
# [2] = biological target: Mitogen-activated protein kinase 3 (Homo sapiens, UniProt P27361); test: DRUGMATRIX: Protein Serine/Threonine Kinase, ERK1 enzyme inhibition (substrate: Myelin Basic Protein); set-up: species or system Escherichia coli; conditions: Not Active = under 50% inhibition at 10 µM
# Mitogen-activated protein kinase 3, sequence (P27361 whole entry): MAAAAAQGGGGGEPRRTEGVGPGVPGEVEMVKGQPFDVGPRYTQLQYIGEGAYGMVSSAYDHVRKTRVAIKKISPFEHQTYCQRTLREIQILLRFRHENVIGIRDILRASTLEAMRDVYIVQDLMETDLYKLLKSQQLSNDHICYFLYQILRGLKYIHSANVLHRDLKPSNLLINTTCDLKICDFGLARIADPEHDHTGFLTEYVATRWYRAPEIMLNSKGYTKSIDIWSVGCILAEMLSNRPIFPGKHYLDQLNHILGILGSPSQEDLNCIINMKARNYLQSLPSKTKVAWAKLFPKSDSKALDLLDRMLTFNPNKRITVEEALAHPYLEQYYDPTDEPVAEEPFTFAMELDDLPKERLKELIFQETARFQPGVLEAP
# [3] = biological target: Epidermal growth factor receptor (Homo sapiens, UniProt P00533); test: DRUGMATRIX: Protein Tyrosine Kinase, EGF Receptor enzyme inhibition (substrate: Poly(Glu:Tyr)); format: cell-based, Insect cells; conditions: insect cells; Not Active = under 50% inhibition at 10 µM
# Epidermal growth factor receptor, sequence (P00533 whole entry): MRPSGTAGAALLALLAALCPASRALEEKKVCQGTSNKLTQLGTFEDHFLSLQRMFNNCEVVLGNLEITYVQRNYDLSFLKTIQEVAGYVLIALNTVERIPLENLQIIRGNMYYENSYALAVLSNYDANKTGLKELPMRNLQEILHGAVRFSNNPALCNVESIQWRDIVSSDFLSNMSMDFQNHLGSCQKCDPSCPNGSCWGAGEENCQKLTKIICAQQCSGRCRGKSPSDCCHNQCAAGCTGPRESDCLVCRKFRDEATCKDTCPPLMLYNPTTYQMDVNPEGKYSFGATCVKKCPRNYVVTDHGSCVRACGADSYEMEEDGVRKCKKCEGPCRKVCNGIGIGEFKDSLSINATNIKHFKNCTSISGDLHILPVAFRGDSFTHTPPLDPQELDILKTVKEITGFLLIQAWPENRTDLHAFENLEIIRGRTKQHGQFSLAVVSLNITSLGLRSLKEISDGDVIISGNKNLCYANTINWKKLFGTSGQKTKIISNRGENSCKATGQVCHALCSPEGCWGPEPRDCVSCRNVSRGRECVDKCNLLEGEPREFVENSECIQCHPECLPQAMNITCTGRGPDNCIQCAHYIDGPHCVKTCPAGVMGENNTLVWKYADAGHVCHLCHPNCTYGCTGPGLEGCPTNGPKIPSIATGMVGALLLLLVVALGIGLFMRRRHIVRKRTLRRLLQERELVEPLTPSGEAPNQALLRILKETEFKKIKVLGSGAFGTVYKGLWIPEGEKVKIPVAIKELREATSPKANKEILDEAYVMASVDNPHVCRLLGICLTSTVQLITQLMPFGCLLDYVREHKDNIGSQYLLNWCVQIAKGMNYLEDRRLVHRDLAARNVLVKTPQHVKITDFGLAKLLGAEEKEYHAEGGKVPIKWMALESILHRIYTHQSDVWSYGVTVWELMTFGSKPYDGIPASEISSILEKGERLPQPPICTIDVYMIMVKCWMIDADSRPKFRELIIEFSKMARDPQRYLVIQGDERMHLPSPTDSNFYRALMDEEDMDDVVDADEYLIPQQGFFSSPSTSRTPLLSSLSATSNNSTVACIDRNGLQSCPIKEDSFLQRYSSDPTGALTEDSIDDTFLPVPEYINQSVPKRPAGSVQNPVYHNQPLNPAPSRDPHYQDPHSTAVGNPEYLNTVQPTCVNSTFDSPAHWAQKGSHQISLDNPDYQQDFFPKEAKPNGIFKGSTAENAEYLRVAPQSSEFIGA
# [4] = biological target: T1, Leukotriene C4 synthase (Cavia porcellus, UniProt A6XA80); test: biochemical; format: tissue-based, Lung;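 note: enzyme inhibition assay of leukotriene C4 synthase, using LTA4 as the substrate; in other assays of this panel Not Active means under 50% inhibition at 10 µM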
# T1 sequence (A6XA80 whole entry): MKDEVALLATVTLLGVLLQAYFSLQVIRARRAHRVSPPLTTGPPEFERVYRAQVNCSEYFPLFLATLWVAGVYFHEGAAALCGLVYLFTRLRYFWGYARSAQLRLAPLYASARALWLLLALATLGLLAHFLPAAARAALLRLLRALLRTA
# [5] = biological target: Substance-P receptor (Homo sapiens, UniProt P25103); format: cell membranes, Membrane; conditions: cho; note: in other assays of this panel Not Active means under 50% inhibition at 10 µM
# Substance-P receptor, sequence (P25103 whole entry): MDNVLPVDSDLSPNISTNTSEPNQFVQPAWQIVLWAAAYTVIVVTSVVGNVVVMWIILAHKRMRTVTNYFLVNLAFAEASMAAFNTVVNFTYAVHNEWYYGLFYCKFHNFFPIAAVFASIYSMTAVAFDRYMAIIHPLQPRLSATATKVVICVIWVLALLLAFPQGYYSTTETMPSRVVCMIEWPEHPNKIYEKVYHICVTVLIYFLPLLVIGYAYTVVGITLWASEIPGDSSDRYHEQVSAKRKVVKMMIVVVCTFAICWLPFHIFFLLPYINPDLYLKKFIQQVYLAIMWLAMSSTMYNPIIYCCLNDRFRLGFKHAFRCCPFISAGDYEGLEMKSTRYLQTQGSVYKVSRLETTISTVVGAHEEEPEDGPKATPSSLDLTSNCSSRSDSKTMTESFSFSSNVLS
# [6] = biological target: T2, C-X-C chemokine receptor type 1 (Homo sapiens, UniProt P25024); note: in other assays of this panel Not Active means under 50% inhibition at 10 µM
# T2 sequence (P25024 whole entry): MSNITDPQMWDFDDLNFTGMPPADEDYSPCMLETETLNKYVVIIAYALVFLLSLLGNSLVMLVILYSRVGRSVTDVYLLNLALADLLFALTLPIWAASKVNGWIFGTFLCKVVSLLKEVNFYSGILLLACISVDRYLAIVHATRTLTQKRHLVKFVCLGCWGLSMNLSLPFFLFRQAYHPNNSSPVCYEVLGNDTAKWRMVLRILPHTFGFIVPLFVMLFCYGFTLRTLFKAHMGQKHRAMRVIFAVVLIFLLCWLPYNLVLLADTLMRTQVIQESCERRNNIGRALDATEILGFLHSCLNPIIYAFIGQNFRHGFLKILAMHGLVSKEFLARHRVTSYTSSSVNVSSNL
# [7] = biological target: 5-hydroxytryptamine receptor 4 (Cavia porcellus, UniProt O70528); format: cell membranes, Dunkin-Hartley, Striatum, Membrane; conditions: for Ki: read-out: Ki; for all read-outs here: in other assays of this panel Not Active means under 50% inhibition at 10 µM
# 5-hydroxytryptamine receptor 4, sequence (O70528 whole entry): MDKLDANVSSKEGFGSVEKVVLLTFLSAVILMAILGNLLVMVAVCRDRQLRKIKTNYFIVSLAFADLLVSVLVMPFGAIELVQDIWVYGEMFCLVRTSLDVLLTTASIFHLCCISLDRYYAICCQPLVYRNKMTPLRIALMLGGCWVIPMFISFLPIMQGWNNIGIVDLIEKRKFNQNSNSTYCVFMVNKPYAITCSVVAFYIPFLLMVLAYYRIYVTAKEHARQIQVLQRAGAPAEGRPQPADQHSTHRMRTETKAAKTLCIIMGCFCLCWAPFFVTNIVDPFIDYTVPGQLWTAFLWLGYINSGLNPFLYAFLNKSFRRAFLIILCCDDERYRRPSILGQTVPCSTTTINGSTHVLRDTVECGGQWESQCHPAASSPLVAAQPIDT
Compound,IC50 [1],Ki [1],IC50 [2],IC50 [3],IC50 [4],IC50 [5],IC50 [6],IC50 [7],IC50 ([7]; read-out: IC50) [µM],Ki [7] [µM],IC50 ([2]; read-out: IC50) [µM],IC50 ([4]; read-out: IC50) [µM]
CC(N)C12CC3CC(CC(C3)C1)C2 (configuration not stated) [RIMANTADINE],Not Active,Not Active,Not Active,Not Active,Not Active,Not Active,Not Active,Not Active,–,–,–,–
CS(=O)(=O)c1ccc(C2=C(c3ccccc3)C(=O)OC2)cc1 [ROFECOXIB],Not Active,Not Active,Not Active,Not Active,Not Active,Not Active,Not Active,Not Active,–,–,–,–
CCOc1cc(N)c(Cl)cc1C(=O)NCC1CN(Cc2ccc(F)cc2)CCO1 (configuration not stated) [MOSAPRIDE],Not Active,Not Active,Not Active,Not Active,Not Active,Not Active,Not Active,–,0.882,0.147,–,–
Cc1ccnc(NS(=O)(=O)c2ccc(N)cc2)n1 [SULFAMERAZINE],Not Active,Not Active,Not Active,Not Active,Not Active,Not Active,Not Active,Not Active,–,–,–,–
OC[C@@H](O)[C@@H](O)[C@H](O)[C@H](O)CO [MANNITOL],Not Active,Not Active,Not Active,Not Active,Not Active,Not Active,Not Active,Not Active,–,–,–,–
Oc1ccc(/C=C/c2cc(O)cc(O)c2)cc1 [RESVERATROL],Not Active,Not Active,Not Active,Not Active,Not Active,Not Active,Not Active,Not Active,–,–,–,–
CC1=C(/C=C/C(C)=C/C=C/C(C)=C/C(=O)O)C(C)(C)CCC1 [TRETINOIN],Not Active,Not Active,Not Active,Not Active,Not Active,Not Active,Not Active,Not Active,–,–,–,–
C=CCc1ccc2c(c1)OCO2 [SAFROLE],Not Active,Not Active,Not Active,Not Active,Not Active,Not Active,Not Active,Not Active,–,–,–,–
CCN(CC)N=O [N-NITROSODIETHYLAMINE],Not Active,Not Active,Not Active,Not Active,Not Active,Not Active,Not Active,Not Active,–,–,–,–
CCN1CCCC1CNC(=O)c1cc(S(N)(=O)=O)ccc1OC (configuration not stated) [SULPIRIDE],Not Active,Not Active,Not Active,Not Active,Not Active,Not Active,Not Active,Not Active,–,–,–,–
O=C1CC[C@@]2(O)[C@H]3Cc4ccc(O)c5c4[C@@]2(CCN3CC2CC2)[C@H]1O5 [NALTREXONE],Not Active,Not Active,Not Active,Not Active,Not Active,Not Active,Not Active,Not Active,–,–,–,–
C[N+]1(C)[C@@H]2C[C@@H](OC(=O)[C@H](CO)c3ccccc3)C[C@H]1[C@@H]1O[C@@H]12.[Br-] [METHSCOPOLAMINE BROMIDE],Not Active,Not Active,Not Active,Not Active,Not Active,Not Active,Not Active,Not Active,–,–,–,–
CCN(CC)CCNC(=O)c1cc(Cl)c(N)cc1OC [METOCLOPRAMIDE],Not Active,Not Active,Not Active,Not Active,Not Active,Not Active,Not Active,Not Active,–,–,–,–
O=C(OC[C@H]1O[C@@H](OC(=O)c2cc(O)c(O)c(OC(=O)c3cc(O)c(O)c(O)c3)c2)[C@H](OC(=O)c2cc(O)c(O)c(OC(=O)c3cc(O)c(O)c(O)c3)c2)[C@@H](OC(=O)c2cc(O)c(O)c(OC(=O)c3cc(O)c(O)c(O)c3)c2)[C@@H]1OC(=O)c1cc(O)c(O)c(OC(=O)c2cc(O)c(O)c(O)c2)c1)c1cc(O)c(O)c(OC(=O)c2cc(O)c(O)c(O)c2)c1 [TANNIC ACID],Not Active,Not Active,–,Not Active,–,Not Active,Not Active,Not Active,–,–,4.05,2.72
CN1C(=O)OC(C)(C)C1=O [TRIMETHADIONE],Not Active,Not Active,Not Active,Not Active,Not Active,Not Active,Not Active,Not Active,–,–,–,–
Cc1cn([C@H]2C=C[C@@H](CO)O2)c(=O)[nH]c1=O [STAVUDINE],Not Active,Not Active,Not Active,Not Active,Not Active,Not Active,Not Active,Not Active,–,–,–,–
CN1C[C@H](CNC(=O)OCc2ccccc2)C[C@@H]2c3cccc4c3c(cn4C)C[C@H]21 [METERGOLINE],Not Active,Not Active,Not Active,Not Active,Not Active,Not Active,Not Active,–,1.64,0.274,–,–
CCN(CC)C(=S)SSC(=S)N(CC)CC,Not Active,Not Active,–,Not Active,Not Active,Not Active,Not Active,Not Active,–,–,1.51,–
Cc1cc2c(s1)Nc1ccccc1N=C2N1CCN(C)CC1 [OLANZAPINE],–,–,Not Active,Not Active,Not Active,Not Active,Not Active,Not Active,–,–,–,–
CC(C)(C)NC[C@H](O)COc1cccc2c1CCCC2=O [LEVOBUNOLOL],Not Active,Not Active,Not Active,Not Active,Not Active,Not Active,Not Active,Not Active,–,–,–,–
Nc1nc(N)c2nc(-c3ccccc3)c(N)nc2n1,Not Active,Not Active,Not Active,Not Active,Not Active,Not Active,Not Active,Not Active,–,–,–,–
Cc1ccc(S(=O)(=O)NC(=O)NN2CCCCCC2)cc1 [TOLAZAMIDE],Not Active,Not Active,Not Active,Not Active,Not Active,Not Active,Not Active,Not Active,–,–,–,–
Cc1ccc(Cl)c(Nc2ccccc2C(=O)O)c1Cl [MECLOFENAMIC ACID],Not Active,Not Active,Not Active,Not Active,Not Active,Not Active,Not Active,Not Active,–,–,–,–
CO[C@@H]1[C@@H](OC)[C@H](C)[C@@](O)(CC(=O)O)O[C@H]1[C@H](C)[C@H]1O[C@@]2(CC[C@@](C)([C@H]3CC[C@@](C)([C@@H]4O[C@@H]([C@H]5O[C@](C)(O)[C@H](C)C[C@@H]5C)C[C@@H]4O[C@@H]4C[C@H](OC)[C@@H](OC)[C@H](C)O4)O3)O2)C[C@H](O)[C@H]1C.N [MADURAMICIN],Not Active,Not Active,Not Active,Not Active,Not Active,Not Active,Not Active,Not Active,–,–,–,–
CCC(C)(C)C(=O)O[C@H]1C[C@@H](C)C=C2C=C[C@H](C)[C@H](CC[C@@H]3C[C@@H](O)CC(=O)O3)[C@H]21 [SIMVASTATIN],Not Active,Not Active,Not Active,Not Active,Not Active,Not Active,Not Active,Not Active,–,–,–,–
CN(C)CCC=C1c2ccccc2COc2ccccc21 [DOXEPIN],–,–,Not Active,Not Active,Not Active,Not Active,Not Active,Not Active,–,–,–,–
C#C[C@]1(O)CC[C@H]2[C@@H]3[C@H](C)CC4=C(CCC(=O)C4)[C@H]3CC[C@@]21C [TIBOLONE],Not Active,Not Active,Not Active,Not Active,Not Active,Not Active,Not Active,Not Active,–,–,–,–
COC(=O)Nc1nc2ccc(C(=O)c3ccccc3)cc2[nH]1 [MEBENDAZOLE],Not Active,Not Active,Not Active,–,Not Active,Not Active,Not Active,Not Active,–,–,–,–
CNCCCC12CCC(c3ccccc31)c1ccccc12 [MAPROTILINE],–,–,Not Active,Not Active,Not Active,Not Active,Not Active,Not Active,–,–,–,–
